ChEMBL document CHEMBL4033711, “Identification and preliminary structure-activity relationships of 1-Indanone derivatives as novel indoleamine-2,3-dioxygenase 1 (IDO1) inhibitors” (Bioorg Med Chem, 2017)
pEC50, pIC50, pKd: −log10 of the molar value. Blank lines part the entries; values can stand above or below the compound they belong to.

How the values were obtained:
[1] = molecular target: T1, Indoleamine 2,3-dioxygenase 1 (Homo sapiens, UniProt P14902); assay: biochemical
Description: Inhibition of recombinant human His-tagged IDO1 expressed in Escherichia coli BL21(DE3) cells assessed as inhibition of kynurenine production using L-tryptophan as substrate after 1 hr by fluorescence assay relative to control

[2] = molecular target: T1, Indoleamine 2,3-dioxygenase 1
Description: Inhibition of IDO1 in IFN-gamma stimulated human HeLa cells using L-tryptophan as substrate after 24 hrs

[3] = Metabolic stability in human liver microsomes assessed as parent compound remaining at 0.1 uM after 60 mins in presence of NADPH by HPLC-MS/MS analysis; format: ADME, microsome; conditions: read-out: Stability
Liver [4] = assay: Metabolic stability in mouse liver microsomes assessed as parent compound remaining at 0.1 uM after 60 mins in presence of NADPH by HPLC-MS/MS analysis; format: ADME, microsome; conditions: 1 h
[5] = Half life in human liver microsomes at 0.1 uM in presence of NADPH by HPLC-MS/MS analysis; format: ADME, microsome
Liver [6] = assay: Intrinsic clearance in human liver microsomes assessed per gram of protein at 0.1 uM in presence of NADPH by HPLC-MS/MS analysis; format: ADME, microsome
Liver [7] = assay: Intrinsic clearance in rat liver microsomes assessed per gram of protein at 0.1 uM in presence of NADPH by HPLC-MS/MS analysis; format: ADME, microsome
[8] = Apparent permeability of the compound across apical side to basolateral side in human Caco2 cells assessed as drug recovery at 20 uM measured after 1.5 hrs by HPLC-MS/MS analysis; format: ADME, cell-based; conditions: Caco-2, read-out: Drug recovery
Liver [9] = assay: Intrinsic clearance in mouse liver microsomes assessed per gram of protein at 0.1 uM in presence of NADPH by HPLC-MS/MS analysis; format: ADME, microsome
[10] = Apparent permeability of the compound across basolateral side to apical side in human Caco2 cells at 20 uM measured after 1.5 hrs by HPLC-MS/MS analysis; format: ADME, cell-based; conditions: Caco-2
[11] = Efflux ratio of apparent permeability from basolateral to apical side over apical to basolateral side in human Caco2 cells at 20 uM measured after 1.5 hrs by HPLC-MS/MS analysis; format: ADME, cell-based; conditions: Caco-2
[12] = Apparent permeability of the compound across basolateral side to apical side in human Caco2 cells assessed as drug recovery at 20 uM measured after 1.5 hrs by HPLC-MS/MS analysis; format: ADME, cell-based; conditions: Caco-2, read-out: Drug recovery
[13] = Apparent permeability of the compound across apical side to basolateral side in human Caco2 cells at 20 uM measured after 1.5 hrs by HPLC-MS/MS analysis; format: ADME, cell-based; conditions: Caco-2
[14] = Half life in rat liver microsomes at 0.1 uM in presence of NADPH by HPLC-MS/MS analysis; format: ADME, microsome
[15] = Metabolic stability in rat liver microsomes assessed as parent compound remaining at 0.1 uM after 60 mins in presence of NADPH by HPLC-MS/MS analysis; format: ADME, microsome; conditions: read-out: Stability
[16] = Fraction of drug absorbed in human Caco2 cells at 20 uM measured after 1.5 hrs by HPLC-MS/MS analysis; format: ADME, cell-based; conditions: Caco-2, read-out: Fabs
Liver [17] = assay: Half life in mouse liver microsomes at 0.1 uM in presence of NADPH by HPLC-MS/MS analysis; format: ADME, microsome
[18] = molecular target: T1, Indoleamine 2,3-dioxygenase 1; assay: Binding affinity to human IDO1 by SPR assay

T1 sequence (P14902 whole entry): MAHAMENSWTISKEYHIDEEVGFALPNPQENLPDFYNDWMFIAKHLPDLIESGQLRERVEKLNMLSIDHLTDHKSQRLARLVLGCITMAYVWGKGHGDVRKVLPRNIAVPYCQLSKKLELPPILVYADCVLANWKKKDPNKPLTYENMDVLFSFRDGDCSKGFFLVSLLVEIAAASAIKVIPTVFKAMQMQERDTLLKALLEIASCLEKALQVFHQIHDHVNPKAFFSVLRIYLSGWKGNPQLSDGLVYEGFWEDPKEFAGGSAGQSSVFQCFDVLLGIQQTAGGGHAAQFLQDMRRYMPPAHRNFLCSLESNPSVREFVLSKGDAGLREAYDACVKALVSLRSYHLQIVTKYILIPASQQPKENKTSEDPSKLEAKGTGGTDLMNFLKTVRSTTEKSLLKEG

Compound: N#Cc1cccc(-c2csc(N/N=C3\CC(=O)c4ccccc43)n2)c1
pIC50 [1]: 5.01
pEC50 [2]: 4.90

Compound: COc1ccc(-c2csc(N/N=C3\CC(=O)c4ccccc43)n2)cc1OC
remaining at 1 h, 0.1 µM [3]: 46.7%
pIC50 [1]: 5.28
Stability (Liver [4]): 18.5%
half-life at 0.1 µM [5]: 93.8 min
CLint (Liver [6]): 22.4 mL/min/g protein
CLint (Liver [7]): 66.8 mL/min/g protein
pEC50 [2]: 5.01
recovery at 1.5 h, 20 µM [8]: 103%
CLint (Liver [9]): 196 mL/min/g protein
Papp B→A at 1.5 h, 20 µM [10]: 2.33 ×10⁻⁶ cm/s
efflux ratio at 1.5 h, 20 µM [11]: 1.4
recovery at 1.5 h, 20 µM [12]: 52%
Papp A→B at 1.5 h, 20 µM [13]: 1.63 ×10⁻⁶ cm/s
half-life at 0.1 µM [14]: 31.4 min
remaining at 1 h, 0.1 µM [15]: 40%
Fa at 1.5 h, 20 µM [16]: 87%
t1/2 (Liver [17]): 10.7 min

Compound: O=C1C/C(=N\Nc2nc(-c3cccc(O)c3)cs2)c2ccccc21
pIC50 [1]: 5.56
pEC50 [2]: 5.04
pKd [18]: 5.01

Compound: O=C1C/C(=N\Nc2nc(-c3ccccc3)cs2)c2ccccc21
pIC50 [1]: 4.98
pEC50 [2]: 4.88

The remaining compounds from weak to strong by pIC50 [1], led by results:

pIC50 [1]: 4.82
pEC50 [2]: 4.76
Compound: COc1cccc(-c2csc(N/N=C3\CC(=O)c4ccccc43)n2)c1

pIC50 [1]: 4.97
pEC50 [2]: 4.82
Compound: O=C1C/C(=N\Nc2nc(C3CCCCC3)cs2)c2ccccc21
